Article PMC12670405, “Second-Generation AURKA-Targeting PROTACs: Structural Optimization toward in Vivo Degradation in Neuroblastoma” (Journal of Medicinal Chemistry, 2025)

Legend:
Test in all cases: KINOMEscan scanMAX
Assay type in all cases: binding
Conditions in all cases: read-out: Percent Control
AAK1 = biological target: T1, AAK1 (Homo sapiens, UniProt Q2M2I8)
T1 construct: purchased Eurofins Discovery (DiscoverX KINOMEscan scanMAX)
Protocol: (§1) The kinome-wide binding assay was performed by Eurofins Discovery using the scanMAX screening platform. More information can be found on the Eurofins Discovery Web site.

[1] = biological target: T2, ABL1(E255K)-phosphorylated (Homo sapiens, UniProt P00519, E255K)
T2 construct: purchased Eurofins Discovery (DiscoverX KINOMEscan scanMAX)
Protocol: as §1

ACVR2A = biological target: T3, ACVR2A (Homo sapiens, UniProt P27037)
T3 construct: purchased Eurofins Discovery (DiscoverX KINOMEscan scanMAX)
Protocol: as §1

ARK5 = biological target: T4, ARK5 (Homo sapiens, UniProt O60285)
T4 construct: purchased Eurofins Discovery (DiscoverX KINOMEscan scanMAX)
Protocol: as §1

BMPR1A = biological target: T5, BMPR1A (Homo sapiens, UniProt P36894)
T5 construct: purchased Eurofins Discovery (DiscoverX KINOMEscan scanMAX)
Protocol: as §1

DDR1 = biological target: T6, DDR1 (Homo sapiens, UniProt Q08345)
T6 construct: purchased Eurofins Discovery (DiscoverX KINOMEscan scanMAX)
Protocol: as §1

DRAK1 = biological target: T7, DRAK1 (Homo sapiens, UniProt Q9UEE5)
T7 construct: purchased Eurofins Discovery (DiscoverX KINOMEscan scanMAX)
Protocol: as §1

EGFR(G719S) = biological target: T8, EGFR(G719S) (Homo sapiens, UniProt P00533, G719S)
T8 construct: purchased Eurofins Discovery (DiscoverX KINOMEscan scanMAX)
Protocol: as §1

EPHA6 = biological target: T9, EPHA6 (Homo sapiens, UniProt Q9UF33)
T9 construct: purchased Eurofins Discovery (DiscoverX KINOMEscan scanMAX)
Protocol: as §1

FLT3(K663Q) = biological target: T10, FLT3(K663Q) (Homo sapiens, UniProt P36888, K663Q)
T10 construct: purchased Eurofins Discovery (DiscoverX KINOMEscan scanMAX)
Protocol: as §1

GRK2 = biological target: T11, GRK2 (Homo sapiens, UniProt P25098)
T11 construct: purchased Eurofins Discovery (DiscoverX KINOMEscan scanMAX)
T11 sequence (P25098 whole entry): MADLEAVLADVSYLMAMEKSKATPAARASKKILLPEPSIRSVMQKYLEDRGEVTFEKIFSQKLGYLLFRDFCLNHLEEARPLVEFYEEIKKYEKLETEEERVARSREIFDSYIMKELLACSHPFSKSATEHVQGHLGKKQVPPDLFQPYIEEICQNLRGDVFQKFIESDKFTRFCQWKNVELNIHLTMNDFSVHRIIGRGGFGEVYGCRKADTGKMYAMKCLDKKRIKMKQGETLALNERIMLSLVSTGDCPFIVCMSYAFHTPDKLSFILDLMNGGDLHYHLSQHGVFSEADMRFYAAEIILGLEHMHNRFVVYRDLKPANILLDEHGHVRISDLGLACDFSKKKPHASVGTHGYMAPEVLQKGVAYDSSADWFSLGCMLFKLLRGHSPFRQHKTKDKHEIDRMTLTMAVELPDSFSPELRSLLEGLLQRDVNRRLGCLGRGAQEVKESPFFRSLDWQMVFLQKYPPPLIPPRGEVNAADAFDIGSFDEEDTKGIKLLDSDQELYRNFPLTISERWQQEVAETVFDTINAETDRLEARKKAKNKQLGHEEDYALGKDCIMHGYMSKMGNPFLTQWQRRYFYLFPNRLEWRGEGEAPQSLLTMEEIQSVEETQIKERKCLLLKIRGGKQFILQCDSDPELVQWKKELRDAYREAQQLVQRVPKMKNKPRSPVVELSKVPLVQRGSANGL
Protocol: as §1

INSR = biological target: T12, INSR (Homo sapiens, UniProt P06213)
T12 construct: purchased Eurofins Discovery (DiscoverX KINOMEscan scanMAX)
Protocol: as §1

[2] = biological target: T13, JAK2(JH1domain-catalytic) (Homo sapiens, UniProt O60674)
T13 construct: JAK2(JH1domain-catalytic); purchased Eurofins Discovery (DiscoverX KINOMEscan scanMAX)
T13 sequence (O60674 840-1132 limits assumed): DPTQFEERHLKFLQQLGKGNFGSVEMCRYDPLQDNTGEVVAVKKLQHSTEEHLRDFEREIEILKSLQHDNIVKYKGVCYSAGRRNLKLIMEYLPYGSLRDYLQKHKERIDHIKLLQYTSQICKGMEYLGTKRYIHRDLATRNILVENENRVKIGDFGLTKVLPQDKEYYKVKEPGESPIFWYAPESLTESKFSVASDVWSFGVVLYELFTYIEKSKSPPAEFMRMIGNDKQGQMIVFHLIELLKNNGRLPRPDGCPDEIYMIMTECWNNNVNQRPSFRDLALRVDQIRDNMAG
Protocol: as §1

JNK2 = biological target: T14, JNK2 (Homo sapiens, UniProt P45984)
T14 construct: purchased Eurofins Discovery (DiscoverX KINOMEscan scanMAX)
Protocol: as §1

KIT-autoinhibited = biological target: T15, KIT-autoinhibited (Homo sapiens, UniProt P10721)
T15 construct: purchased Eurofins Discovery (DiscoverX KINOMEscan scanMAX)
Protocol: as §1

MEK4 = biological target: T16, MEK4 (Homo sapiens, UniProt P45985)
T16 construct: purchased Eurofins Discovery (DiscoverX KINOMEscan scanMAX)
Protocol: as §1

MRCKA = biological target: T17, MRCKA (Homo sapiens, UniProt Q5VT25)
T17 construct: purchased Eurofins Discovery (DiscoverX KINOMEscan scanMAX)
Protocol: as §1

MRCKB = biological target: T18, MRCKB (Homo sapiens, UniProt Q9Y5S2)
T18 construct: purchased Eurofins Discovery (DiscoverX KINOMEscan scanMAX)
T18 sequence (Q9Y5S2 whole entry): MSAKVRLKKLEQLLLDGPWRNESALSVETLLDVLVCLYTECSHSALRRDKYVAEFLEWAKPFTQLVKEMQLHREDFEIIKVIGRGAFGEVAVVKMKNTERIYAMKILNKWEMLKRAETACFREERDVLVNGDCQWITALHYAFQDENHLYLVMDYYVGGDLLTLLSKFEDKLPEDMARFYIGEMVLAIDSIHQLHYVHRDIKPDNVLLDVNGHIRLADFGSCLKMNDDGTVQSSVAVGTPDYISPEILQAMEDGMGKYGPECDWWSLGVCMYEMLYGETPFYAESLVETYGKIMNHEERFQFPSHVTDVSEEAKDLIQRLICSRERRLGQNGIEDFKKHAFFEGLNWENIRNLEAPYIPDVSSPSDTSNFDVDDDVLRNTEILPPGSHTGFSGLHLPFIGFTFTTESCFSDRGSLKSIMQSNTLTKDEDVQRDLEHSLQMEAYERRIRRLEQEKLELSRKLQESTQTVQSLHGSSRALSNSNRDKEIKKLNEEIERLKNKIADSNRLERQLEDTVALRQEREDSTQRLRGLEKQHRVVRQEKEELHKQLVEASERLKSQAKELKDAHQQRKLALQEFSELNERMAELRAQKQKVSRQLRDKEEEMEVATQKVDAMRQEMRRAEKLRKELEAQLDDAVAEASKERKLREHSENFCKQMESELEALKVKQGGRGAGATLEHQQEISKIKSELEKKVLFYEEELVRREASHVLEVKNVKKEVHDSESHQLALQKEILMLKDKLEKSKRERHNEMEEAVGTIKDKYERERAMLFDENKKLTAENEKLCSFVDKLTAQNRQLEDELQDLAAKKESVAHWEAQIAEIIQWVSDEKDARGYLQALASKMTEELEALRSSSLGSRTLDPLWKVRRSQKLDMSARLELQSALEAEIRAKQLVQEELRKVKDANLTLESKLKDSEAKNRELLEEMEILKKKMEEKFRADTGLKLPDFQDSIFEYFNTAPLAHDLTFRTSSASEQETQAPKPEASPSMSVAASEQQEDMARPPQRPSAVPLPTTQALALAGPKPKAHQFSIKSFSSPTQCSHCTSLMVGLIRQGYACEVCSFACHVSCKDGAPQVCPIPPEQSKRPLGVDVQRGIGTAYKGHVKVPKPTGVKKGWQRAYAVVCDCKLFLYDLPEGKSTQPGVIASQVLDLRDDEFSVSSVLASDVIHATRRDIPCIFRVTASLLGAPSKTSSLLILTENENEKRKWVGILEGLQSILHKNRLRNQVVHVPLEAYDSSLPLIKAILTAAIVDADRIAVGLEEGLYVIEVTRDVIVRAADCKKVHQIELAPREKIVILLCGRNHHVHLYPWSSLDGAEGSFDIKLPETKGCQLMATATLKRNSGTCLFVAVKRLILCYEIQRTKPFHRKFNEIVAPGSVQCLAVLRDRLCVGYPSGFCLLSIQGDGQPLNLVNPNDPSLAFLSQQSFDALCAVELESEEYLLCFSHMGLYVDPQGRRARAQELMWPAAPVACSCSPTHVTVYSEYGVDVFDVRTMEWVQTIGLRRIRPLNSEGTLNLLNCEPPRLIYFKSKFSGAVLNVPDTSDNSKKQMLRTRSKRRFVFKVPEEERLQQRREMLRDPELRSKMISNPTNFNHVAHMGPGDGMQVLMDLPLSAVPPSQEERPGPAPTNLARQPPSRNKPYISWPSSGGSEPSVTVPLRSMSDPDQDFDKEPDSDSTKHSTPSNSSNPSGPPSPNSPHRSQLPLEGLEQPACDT
Protocol: as §1

NIK = biological target: T19, NIK (Homo sapiens, UniProt Q99558)
T19 construct: purchased Eurofins Discovery (DiscoverX KINOMEscan scanMAX)
T19 sequence (Q99558 whole entry): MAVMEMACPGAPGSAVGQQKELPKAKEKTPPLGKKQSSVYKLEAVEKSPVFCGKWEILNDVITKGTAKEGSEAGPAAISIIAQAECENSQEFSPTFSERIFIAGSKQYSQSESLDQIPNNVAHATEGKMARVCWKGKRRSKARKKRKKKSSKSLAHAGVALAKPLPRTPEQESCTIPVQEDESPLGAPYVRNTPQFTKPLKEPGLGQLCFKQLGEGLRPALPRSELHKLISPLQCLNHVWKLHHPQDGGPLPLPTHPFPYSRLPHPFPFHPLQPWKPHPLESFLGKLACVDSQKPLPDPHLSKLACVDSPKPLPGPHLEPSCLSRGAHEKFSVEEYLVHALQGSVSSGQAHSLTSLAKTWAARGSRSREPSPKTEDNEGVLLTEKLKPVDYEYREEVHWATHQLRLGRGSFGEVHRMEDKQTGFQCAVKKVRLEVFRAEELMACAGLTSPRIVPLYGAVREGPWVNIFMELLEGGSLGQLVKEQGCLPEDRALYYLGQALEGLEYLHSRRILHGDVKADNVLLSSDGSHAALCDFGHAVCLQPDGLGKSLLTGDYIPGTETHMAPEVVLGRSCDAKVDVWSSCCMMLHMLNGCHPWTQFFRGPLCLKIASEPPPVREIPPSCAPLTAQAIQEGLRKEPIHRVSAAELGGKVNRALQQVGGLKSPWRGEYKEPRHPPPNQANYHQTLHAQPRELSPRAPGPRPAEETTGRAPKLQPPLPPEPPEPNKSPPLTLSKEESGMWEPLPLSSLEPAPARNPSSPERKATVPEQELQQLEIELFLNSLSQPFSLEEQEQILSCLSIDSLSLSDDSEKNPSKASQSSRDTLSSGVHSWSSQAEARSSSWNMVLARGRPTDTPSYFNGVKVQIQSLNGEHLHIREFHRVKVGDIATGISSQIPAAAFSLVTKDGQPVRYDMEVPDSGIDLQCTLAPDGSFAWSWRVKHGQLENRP
Protocol: as §1

PAK3 = biological target: T20, PAK3 (Homo sapiens, UniProt O75914)
T20 construct: purchased Eurofins Discovery (DiscoverX KINOMEscan scanMAX)
Protocol: as §1

PCTK3 = biological target: T21, PCTK3 (Homo sapiens, UniProt Q07002)
T21 construct: purchased Eurofins Discovery (DiscoverX KINOMEscan scanMAX)
Protocol: as §1

PFPK5(P.falciparum) = biological target: T22, PFPK5(P.falciparum) (Plasmodium falciparum, UniProt P61075)
T22 construct: purchased Eurofins Discovery (DiscoverX KINOMEscan scanMAX)
Protocol: as §1

PHKG2 = biological target: T23, PHKG2 (Homo sapiens, UniProt P15735)
T23 construct: purchased Eurofins Discovery (DiscoverX KINOMEscan scanMAX)
Protocol: as §1

PIK3CA(E542K) = biological target: T24, PIK3CA(E542K) (Homo sapiens, UniProt P42336, E542K)
T24 construct: purchased Eurofins Discovery (DiscoverX KINOMEscan scanMAX)
Protocol: as §1

PIK3CB = biological target: T25, PIK3CB (Homo sapiens, UniProt P42338)
T25 construct: purchased Eurofins Discovery (DiscoverX KINOMEscan scanMAX)
Protocol: as §1

[3] = biological target: T26, RSK1(Kin.Dom.1-N-terminal) (Homo sapiens, UniProt Q15418)
T26 construct: RSK1(Kin.Dom.1-N-terminal); purchased Eurofins Discovery (DiscoverX KINOMEscan scanMAX)
T26 sequence (Q15418 1-391 limits assumed): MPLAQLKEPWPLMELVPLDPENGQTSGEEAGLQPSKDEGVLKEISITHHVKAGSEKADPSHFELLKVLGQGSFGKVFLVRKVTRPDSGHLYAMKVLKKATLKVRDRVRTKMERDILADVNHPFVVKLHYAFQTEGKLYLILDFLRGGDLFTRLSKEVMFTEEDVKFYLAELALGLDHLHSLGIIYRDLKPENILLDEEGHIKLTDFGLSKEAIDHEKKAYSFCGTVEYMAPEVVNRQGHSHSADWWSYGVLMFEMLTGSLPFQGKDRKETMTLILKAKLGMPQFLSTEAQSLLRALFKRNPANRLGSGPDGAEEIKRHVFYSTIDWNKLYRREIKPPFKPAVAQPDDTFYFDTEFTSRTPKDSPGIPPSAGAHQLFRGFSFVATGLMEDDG
Protocol: as §1

SRMS = biological target: T27, SRMS (Homo sapiens, UniProt Q9H3Y6)
T27 construct: purchased Eurofins Discovery (DiscoverX KINOMEscan scanMAX)
Protocol: as §1

SYK = biological target: T28, SYK (Homo sapiens, UniProt P43405)
T28 construct: purchased Eurofins Discovery (DiscoverX KINOMEscan scanMAX)
Protocol: as §1

TIE2 = biological target: T29, TIE2 (Homo sapiens, UniProt Q02763)
T29 construct: purchased Eurofins Discovery (DiscoverX KINOMEscan scanMAX)
Protocol: as §1

TRKB = biological target: T30, TRKB (Homo sapiens, UniProt Q16620)
T30 construct: purchased Eurofins Discovery (DiscoverX KINOMEscan scanMAX)
Protocol: as §1

TRPM6 = biological target: T31, TRPM6 (Homo sapiens, UniProt Q9BX84)
T31 construct: purchased Eurofins Discovery (DiscoverX KINOMEscan scanMAX)
Protocol: as §1

WEE1 = biological target: T32, WEE1 (Homo sapiens, UniProt P30291)
T32 construct: purchased Eurofins Discovery (DiscoverX KINOMEscan scanMAX)
Protocol: as §1

WNK2 = biological target: T33, WNK2 (Homo sapiens, UniProt Q9Y3S1)
T33 construct: purchased Eurofins Discovery (DiscoverX KINOMEscan scanMAX)
Protocol: as §1

T1 sequence (Q2M2I8 whole entry): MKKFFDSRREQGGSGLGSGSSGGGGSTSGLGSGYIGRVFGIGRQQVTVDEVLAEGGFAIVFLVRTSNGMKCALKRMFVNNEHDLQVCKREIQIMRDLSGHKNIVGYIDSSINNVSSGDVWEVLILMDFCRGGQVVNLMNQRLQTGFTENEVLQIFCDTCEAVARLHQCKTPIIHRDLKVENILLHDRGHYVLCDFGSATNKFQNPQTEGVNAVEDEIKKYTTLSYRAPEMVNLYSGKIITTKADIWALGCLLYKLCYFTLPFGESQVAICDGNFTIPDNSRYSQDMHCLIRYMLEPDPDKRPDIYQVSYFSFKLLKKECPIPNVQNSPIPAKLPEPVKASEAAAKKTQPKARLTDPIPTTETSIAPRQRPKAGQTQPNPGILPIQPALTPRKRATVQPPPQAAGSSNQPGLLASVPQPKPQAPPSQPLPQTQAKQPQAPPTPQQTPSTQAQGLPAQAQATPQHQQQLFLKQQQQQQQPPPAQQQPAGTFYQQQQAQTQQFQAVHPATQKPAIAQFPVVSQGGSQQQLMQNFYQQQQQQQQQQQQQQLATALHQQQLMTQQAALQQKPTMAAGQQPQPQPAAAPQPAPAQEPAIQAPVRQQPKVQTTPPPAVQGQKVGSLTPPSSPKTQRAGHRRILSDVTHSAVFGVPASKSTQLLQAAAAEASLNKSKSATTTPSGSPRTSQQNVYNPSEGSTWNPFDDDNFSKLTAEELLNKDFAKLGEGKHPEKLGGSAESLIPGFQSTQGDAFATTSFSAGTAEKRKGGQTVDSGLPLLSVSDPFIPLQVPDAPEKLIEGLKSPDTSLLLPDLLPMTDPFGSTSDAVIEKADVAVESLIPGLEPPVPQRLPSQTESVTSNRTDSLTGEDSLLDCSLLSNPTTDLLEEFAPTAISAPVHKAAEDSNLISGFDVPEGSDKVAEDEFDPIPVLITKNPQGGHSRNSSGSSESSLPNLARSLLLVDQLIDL

Cc1cc(Nc2ccc(F)c(CC3(C(=O)N4CCC(F)(CN5CCN(c6ccc(N7CCC(=O)NC7=O)cn6)CC5)CC4)CCN(Cc4cccc(Cl)c4F)CC3)n2)n[nH]1 [SK5527]
remaining binding at 0.1 µM (AAK1; 100 nM): 100% | remaining binding at 1 µM (AAK1; 1000 nM): 92% | remaining binding at 0.1 µM ([1]; 100 nM): 88% | remaining binding at 1 µM ([1]; 1000 nM): 62% | remaining binding at 0.1 µM (ACVR2A; 100 nM): 100% | remaining binding at 1 µM (ACVR2A; 1000 nM): 98% | remaining binding at 0.1 µM (ARK5; 100 nM): 83% | remaining binding at 1 µM (ARK5; 1000 nM): 90% | remaining binding at 0.1 µM (BMPR1A; 100 nM): 100% | remaining binding at 1 µM (BMPR1A; 1000 nM): 100% | remaining binding at 0.1 µM (DDR1; 100 nM): 98% | remaining binding at 1 µM (DDR1; 1000 nM): 93% | remaining binding at 0.1 µM (DRAK1; 100 nM): 100% | remaining binding at 1 µM (DRAK1; 1000 nM): 87% | remaining binding at 0.1 µM (EGFR(G719S); 100 nM): 94% | remaining binding at 1 µM (EGFR(G719S); 1000 nM): 100% | remaining binding at 0.1 µM (EPHA6; 100 nM): 100% | remaining binding at 1 µM (EPHA6; 1000 nM): 93% | remaining binding at 0.1 µM (FLT3(K663Q); 100 nM): 81% | remaining binding at 1 µM (FLT3(K663Q); 1000 nM): 79% | remaining binding at 0.1 µM (GRK2; 100 nM): 100% | remaining binding at 1 µM (GRK2; 1000 nM): 100% | remaining binding at 0.1 µM (INSR; 100 nM): 85% | remaining binding at 1 µM (INSR; 1000 nM): 85% | remaining binding at 0.1 µM ([2]; 100 nM): 91% | remaining binding at 1 µM ([2]; 1000 nM): 65% | remaining binding at 0.1 µM (JNK2; 100 nM): 67% | remaining binding at 1 µM (JNK2; 1000 nM): 74% | remaining binding at 0.1 µM (KIT-autoinhibited; 100 nM): 94% | remaining binding at 1 µM (KIT-autoinhibited; 1000 nM): 84% | remaining binding at 0.1 µM (MEK4; 100 nM): 94% | remaining binding at 1 µM (MEK4; 1000 nM): 73% | remaining binding at 0.1 µM (MRCKA; 100 nM): 100% | remaining binding at 1 µM (MRCKA; 1000 nM): 93% | remaining binding at 0.1 µM (MRCKB; 100 nM): 98% | remaining binding at 1 µM (MRCKB; 1000 nM): 93% | remaining binding at 0.1 µM (NIK; 100 nM): 100% | remaining binding at 1 µM (NIK; 1000 nM): 88% | remaining binding at 0.1 µM (PAK3; 100 nM): 100% | remaining binding at 1 µM (PAK3; 1000 nM): 100% | remaining binding at 0.1 µM (PCTK3; 100 nM): 91% | remaining binding at 1 µM (PCTK3; 1000 nM): 84% | remaining binding at 0.1 µM (PFPK5(P.falciparum); 100 nM): 89% | remaining binding at 1 µM (PFPK5(P.falciparum); 1000 nM): 80% | remaining binding at 0.1 µM (PHKG2; 100 nM): 95% | remaining binding at 1 µM (PHKG2; 1000 nM): 97% | remaining binding at 0.1 µM (PIK3CA(E542K); 100 nM): 81% | remaining binding at 1 µM (PIK3CA(E542K); 1000 nM): 68% | remaining binding at 0.1 µM (PIK3CB; 100 nM): 78% | remaining binding at 1 µM (PIK3CB; 1000 nM): 95% | remaining binding at 0.1 µM ([3]; 100 nM): 100% | remaining binding at 1 µM ([3]; 1000 nM): 100% | remaining binding at 0.1 µM (SRMS; 100 nM): 90% | remaining binding at 1 µM (SRMS; 1000 nM): 82% | remaining binding at 0.1 µM (SYK; 100 nM): 83% | remaining binding at 1 µM (SYK; 1000 nM): 100% | remaining binding at 0.1 µM (TIE2; 100 nM): 100% | remaining binding at 1 µM (TIE2; 1000 nM): 100% | remaining binding at 0.1 µM (TRKB; 100 nM): 95% | remaining binding at 1 µM (TRKB; 1000 nM): 47% | remaining binding at 0.1 µM (TRPM6; 100 nM): 100% | remaining binding at 1 µM (TRPM6; 1000 nM): 100% | remaining binding at 0.1 µM (WEE1; 100 nM): 99% | remaining binding at 1 µM (WEE1; 1000 nM): 87% | remaining binding at 0.1 µM (WNK2; 100 nM): 100% | remaining binding at 1 µM (WNK2; 1000 nM): 100%
